This note sets out measurements from patent US12403137B2, “Compounds and methods of use” (Tango Therapeutics, Inc., priority 2019, dated 2025).

As a reminder, the IC50 is the concentration at which inhibition is half-maximal.

Assay [1] concerns HAP1 MTAP-intact cell line. Description: SDMA in-cell western assay, HAP1 MTAP-intact. In kind it is cell-based. Conditions: Homo sapiens. The procedure: (§1) Table 1 also indicates IC50 values in an MTAP-isogenic cell line pair for exemplary compounds in an SDMA in-cell western assay (columns 7-8). HAP1 MTAP-intact is a cell line in which endogenous levels of MTAP are expressed, and HAP1 MTAP-deleted is an MTAP-null cell line. For Table 1, “a*” and “aa*” indicates an IC50 of <1 μM, “b*” and “bb*” indicates an IC50 equal to or greater than 1 μM but less than 10 μM, and “c*” and “cc*” indicates an IC50 of greater than or equal to 10 μM in the HAP1 MTAP-intact and the HAP1 MTAP-deleted assays, respectively. In column 9, “A*” indicates an IC50 ratio greater than or equal to 10 fold between the IC50 in the HAP1 MTAP-intact cell line and the HAP1 MTAP-deleted cell line; “B*” indicates an IC50 ratio greater than or equal to 3 fold but lower than 10 fold between the IC50 in the HAP1 MTAP-intact cell line and the HAP1 MTAP-deleted cell line; “C*” indicates an IC50 ratio of less than 3 fold between the IC50 in the HAP1 MTAP-intact cell line and the HAP1 MTAP-deleted cell line. Compounds with a ratio in the SDMA in-cell western assay of equal to or greater than 3 fold are considered MTAP-selective.

Assay [2] concerns the target T1, PRMT5 (Homo sapiens, UniProt O14744).
T1 construct: purchased Viva (custom protein)
As to the kind of experiment: PRMT5 inhibition assay with MTA as cofactor. Conditions: for IC50: against PRMT5 with MTA as cofactor; for SAM/MTA Ratio: ratio of Ki in the presence of SAM to Ki in the presence of MTA, Ki=IC50/1.5 (SAM), Ki=IC50/13.5 (MTA). It counts as biochemical. An excerpt:
(§2) The Ki values can be calculated from the IC50 values as described in the Examples section. As detailed in the Examples section, for the assay performed in the presence of SAM, IC50=Ki×1.5 (Ki=IC50/1.5). For the assay performed in the presence of MTA, IC50=Ki×13.5 (Ki=IC50/13.5). Column 6 indicates the ratio between the Ki of compounds in the presence of SAM and the Ki of compounds in the presence of MTA

Assay [3] has as its target T1, PRMT5. As to the kind of experiment: PRMT5 inhibition assay with SAM as cofactor. It counts as biochemical. Conditions: against PRMT5 in the presence of SAM as cofactor.
Excerpt: as §2

In assay [4] the test system is HAP1 MTAP-deleted cell line. As to the kind of experiment: SDMA in-cell western assay, HAP1 MTAP-deleted. Conditions: for IC50: Homo sapiens, HAP1 MTAP-deleted (MTAP-null) cell line; for MTAP Intact/Deleted Ratio: IC50 ratio HAP1 MTAP-intact / HAP1 MTAP-deleted, >=3 fold considered MTAP-selective. It counts as cell-based. As for the experimental part: as §1
Assay [5] has as its target T1, PRMT5. Description: PRMT5 inhibition assay with no cofactor. Conditions: against PRMT5 with no cofactor; read-out: No Co-factor IC50. It counts as biochemical.

Some results are limits rather than exact numbers.

T1 sequence (O14744 whole entry): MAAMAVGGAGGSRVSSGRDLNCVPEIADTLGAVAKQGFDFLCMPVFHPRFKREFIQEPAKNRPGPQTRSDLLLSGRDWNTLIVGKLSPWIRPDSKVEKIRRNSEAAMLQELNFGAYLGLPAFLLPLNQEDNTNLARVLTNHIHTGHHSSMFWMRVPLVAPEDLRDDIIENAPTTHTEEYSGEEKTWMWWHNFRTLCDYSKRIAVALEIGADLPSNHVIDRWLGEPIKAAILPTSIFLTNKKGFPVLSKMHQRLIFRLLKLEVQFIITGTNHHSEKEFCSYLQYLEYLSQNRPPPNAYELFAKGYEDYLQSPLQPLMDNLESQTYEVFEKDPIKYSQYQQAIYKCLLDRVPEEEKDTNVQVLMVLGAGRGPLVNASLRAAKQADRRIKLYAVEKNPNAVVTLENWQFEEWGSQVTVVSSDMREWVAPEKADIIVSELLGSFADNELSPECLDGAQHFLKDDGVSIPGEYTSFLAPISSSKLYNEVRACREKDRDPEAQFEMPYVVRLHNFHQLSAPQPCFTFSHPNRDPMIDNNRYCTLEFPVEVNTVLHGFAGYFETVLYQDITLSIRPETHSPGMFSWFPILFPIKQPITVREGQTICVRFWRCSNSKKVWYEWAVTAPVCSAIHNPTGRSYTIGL
T1 sequence (Q9BQA1 whole entry partner): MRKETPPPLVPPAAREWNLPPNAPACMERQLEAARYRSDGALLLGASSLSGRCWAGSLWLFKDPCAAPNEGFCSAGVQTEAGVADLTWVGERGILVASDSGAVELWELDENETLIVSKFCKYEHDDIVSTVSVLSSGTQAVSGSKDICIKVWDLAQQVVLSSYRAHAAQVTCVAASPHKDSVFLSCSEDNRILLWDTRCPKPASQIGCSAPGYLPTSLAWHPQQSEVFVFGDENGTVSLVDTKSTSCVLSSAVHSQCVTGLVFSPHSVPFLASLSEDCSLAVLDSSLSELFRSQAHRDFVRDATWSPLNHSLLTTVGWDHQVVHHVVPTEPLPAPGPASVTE

`COCCN(C)c1cc(C(=O)NC[C@@H](O)[C@@H]2Cc3ccc(OCc4ocnc4C)cc3CN2)cc(NC2CCC2)n1` [Compound 33, 2-(cyclobutylamino)-N—((R)-2-hydroxy-2-((S)-7-((4-methyloxazol-5-yl)methoxy)-1,2,3,4-tetrahydroisoquinolin-3-yl)ethyl)-6-((2-methoxyethyl)(methyl)amino)isonicotinamide]: the IC50 in assay [1] is 1000 to 10000 nM; at PRMT5 [2] it was 50 to 500 nM; on PRMT5 [3], 50 to 500 nM; in assay [4], less than 1000 nM; on PRMT5 [5], 50 to 500 nM. The “SAM/MTA Ratio” value at PRMT5 [2] is “A (a Ki ratio greater than or equal to 10 fold between the Ki in the presence of SAM and the Ki in the presence of MTA)”. Also, the “MTAP Intact/Deleted Ratio” value in assay [4] was “B* (an IC50 ratio greater than or equal to 3 fold but lower than 10 fold between the IC50 in the HAP1 MTAP-intact cell line and the HAP1 MTAP-deleted cell line)”.

As for `Cc1ncoc1COc1ccc2c(c1)CN[C@H]([C@H](O)CNC(=O)c1ccnc(NC3CC4(CCC4)C3)c1)C2` [Compound 46, N-[(2R)-2-hydroxy-2-[(3S)-7-[(4-methyloxazol-5-yl)methoxy]-1,2,3,4-tetrahydroisoquinolin-3-yl]ethyl]-2-(spiro[3.3]heptan-2-ylamino)pyridine-4-carboxamide], the IC50 was less than 1000 nM in assay [1]; less than 50 nM against PRMT5 [2]; 50 to 500 nM on PRMT5 [3]; less than 1000 nM in assay [4]; 50 to 500 nM at PRMT5 [5]. On PRMT5 [2], the “SAM/MTA Ratio” value is “A (a Ki ratio greater than or equal to 10 fold between the Ki in the presence of SAM and the Ki in the presence of MTA)”. Besides, in assay [4], the “MTAP Intact/Deleted Ratio” value is “B* (an IC50 ratio greater than or equal to 3 fold but lower than 10 fold between the IC50 in the HAP1 MTAP-intact cell line and the HAP1 MTAP-deleted cell line)”.

For `Cn1nccc1COc1ccc2c(c1)CN[C@H]([C@H](O)CNC(=O)c1ccc(C(=O)N3CCOCC3)cc1)C2` [Compound 2, N—((R)-2-hydroxy-2-((S)-7-((1-methyl-1H-pyrazol-5-yl)methoxy)-1,2,3,4-tetrahydroisoquinolin-3-yl)ethyl)-4-(morpholine-4-carbonyl)benzamide], the IC50 in assay [1] was no less than 10000 nM; against PRMT5 [2] it was 50 to 500 nM; at PRMT5 [3] it was 50 to 500 nM; in assay [4], no less than 10000 nM; on PRMT5 [5], 500 to 5000 nM. In addition, the “SAM/MTA Ratio” value on PRMT5 [2] is “A (a Ki ratio greater than or equal to 10 fold between the Ki in the presence of SAM and the Ki in the presence of MTA)”. Further, in assay [4], the “MTAP Intact/Deleted Ratio” value is “C* (an IC50 ratio of less than 3 fold between the IC50 in the HAP1 MTAP-intact cell line and the HAP1 MTAP-deleted cell line)”.

For the compound `CC(=O)N1CCC(Nc2cc(C(=O)NC[C@@H](O)[C@@H]3Cc4ccc(OCc5ocnc5C)cc4CN3)nc(N3CCCCC3)n2)CC1` [Compound 50, 6-[(1-acetyl-4-piperidyl)amino]-N-[(2R)-2-hydroxy-2-[(3S)-7-[(4-methyloxazol-5-yl)methoxy]-1,2,3,4-tetrahydroisoquinolin-3-yl]ethyl]-2-(1-piperidyl)pyrimidine-4-carboxamide], the IC50 in assay [1] was less than 1000 nM; on PRMT5 [2], less than 50 nM; at PRMT5 [3], 50 to 500 nM; in assay [4] it was less than 1000 nM; at PRMT5 [5] it was 50 to 500 nM. For the same compound, the “SAM/MTA Ratio” value on PRMT5 [2] is “A (a Ki ratio greater than or equal to 10 fold between the Ki in the presence of SAM and the Ki in the presence of MTA)”. The “MTAP Intact/Deleted Ratio” value in assay [4] was “A* (an IC50 ratio greater than or equal to 10 fold between the IC50 in the HAP1 MTAP-intact cell line and the HAP1 MTAP-deleted cell line)”.

In the case of `Cc1ncoc1COc1ccc2c(c1)CN[C@H]([C@H](O)CNC(=O)c1ccnc(Nc3cccnc3)c1)C2` [Compound 34, N—((R)-2-hydroxy-2-((S)-7-((4-methyloxazol-5-yl)methoxy)-1,2,3,4-tetrahydroisoquinolin-3-yl)ethyl)-2-(pyridin-3-ylamino)isonicotinamide], the IC50 is no less than 10000 nM in assay [1]; less than 50 nM against PRMT5 [2]; 50 to 500 nM on PRMT5 [3]; 1000 to 10000 nM in assay [4]; 50 to 500 nM at PRMT5 [5]. For the same compound, at PRMT5 [2], the “SAM/MTA Ratio” value was “A (a Ki ratio greater than or equal to 10 fold between the Ki in the presence of SAM and the Ki in the presence of MTA)”. In addition, the “MTAP Intact/Deleted Ratio” value in assay [4] was “B* (an IC50 ratio greater than or equal to 3 fold but lower than 10 fold between the IC50 in the HAP1 MTAP-intact cell line and the HAP1 MTAP-deleted cell line)”.

Consider `CCOc1nc(N2CCN(C(=O)OC)CC2)ccc1C(=O)NC[C@@H](O)[C@@H]1Cc2ccc(OCc3cnco3)cc2CN1` [Compound 16, methyl 4-(6-ethoxy-5-(((R)-2-hydroxy-2-((S)-7-(oxazol-5-ylmethoxy)-1,2,3,4-tetrahydroisoquinolin-3-yl)ethyl)carbamoyl)pyridin-2-yl)piperazine-1-carboxylate], for which the IC50 is 1000 to 10000 nM in assay [1]; less than 50 nM against PRMT5 [2]; 50 to 500 nM at PRMT5 [3]; less than 1000 nM in assay [4]; 50 to 500 nM on PRMT5 [5]. Also, the “SAM/MTA Ratio” value at PRMT5 [2] is “A (a Ki ratio greater than or equal to 10 fold between the Ki in the presence of SAM and the Ki in the presence of MTA)”. In assay [4], the “MTAP Intact/Deleted Ratio” value was “B* (an IC50 ratio greater than or equal to 3 fold but lower than 10 fold between the IC50 in the HAP1 MTAP-intact cell line and the HAP1 MTAP-deleted cell line)”.

`CC(=O)N1CC(Nc2cc(C(=O)NC[C@@H](O)[C@@H]3Cc4ccc(OCc5ocnc5C)cc4CN3)nc(N3CC4CCC3C4)n2)C1` (stereo partly drawn) [Compound 53, 6-[(1-acetylazetidin-3-yl)amino]-2-(3-azabicyclo[2.2.1]heptan-3-yl)-N-[(2R)-2-hydroxy-2-[(3S)-7-[(4-methyloxazol-5-yl)methoxy]-1,2,3,4-tetrahydroisoquinolin-3-yl]ethyl]pyrimidine-4-carboxamide]: the IC50 in assay [1] was 1000 to 10000 nM; against PRMT5 [2] it was less than 50 nM; at PRMT5 [3] it was 50 to 500 nM; in assay [4], less than 1000 nM; on PRMT5 [5], 50 to 500 nM. Also, the “SAM/MTA Ratio” value on PRMT5 [2] was “A (a Ki ratio greater than or equal to 10 fold between the Ki in the presence of SAM and the Ki in the presence of MTA)”. The “MTAP Intact/Deleted Ratio” value in assay [4] was “A* (an IC50 ratio greater than or equal to 10 fold between the IC50 in the HAP1 MTAP-intact cell line and the HAP1 MTAP-deleted cell line)”.

Regarding `CC(=O)N1CC(Nc2cc(C(=O)NC[C@@H](O)[C@@H]3Cc4ccc(OCc5ocnc5C)cc4CN3)nc(N3CCCC3)n2)C1` [Compound 61, 6-[(1-acetylazetidin-3-yl)amino]-N-[(2R)-2-hydroxy-2-[(3S)-7-[(4-methyloxazol-5-yl)methoxy]-1,2,3,4-tetrahydroisoquinolin-3-yl]ethyl]-2-pyrrolidin-1-yl-pyrimidine-4-carboxamide], the IC50 in assay [1] is no less than 10000 nM; against PRMT5 [2], less than 50 nM; on PRMT5 [3], 50 to 500 nM; in assay [4] it was less than 1000 nM; at PRMT5 [5] it was 50 to 500 nM. Also, the “SAM/MTA Ratio” value on PRMT5 [2] was “A (a Ki ratio greater than or equal to 10 fold between the Ki in the presence of SAM and the Ki in the presence of MTA)”. Further, the “MTAP Intact/Deleted Ratio” value in assay [4] is “A* (an IC50 ratio greater than or equal to 10 fold between the IC50 in the HAP1 MTAP-intact cell line and the HAP1 MTAP-deleted cell line)”.

For `Cc1ncoc1COc1ccc2c(c1)CN[C@H]([C@H](O)CNC(=O)c1cc(NC3CCC3)ccn1)C2` [Compound 35, 4-(cyclobutylamino)-N—((R)-2-hydroxy-2-((S)-7-((4-methyloxazol-5-yl)methoxy)-1,2,3,4-tetrahydroisoquinolin-3-yl)ethyl)picolinamide], the IC50 is 1000 to 10000 nM in assay [1]; less than 50 nM at PRMT5 [2]; 50 to 500 nM at PRMT5 [3]; less than 1000 nM in assay [4]; 500 to 5000 nM at PRMT5 [5]. Moreover, the “SAM/MTA Ratio” value on PRMT5 [2] is “A (a Ki ratio greater than or equal to 10 fold between the Ki in the presence of SAM and the Ki in the presence of MTA)”. Further, in assay [4], the “MTAP Intact/Deleted Ratio” value is “A* (an IC50 ratio greater than or equal to 10 fold between the IC50 in the HAP1 MTAP-intact cell line and the HAP1 MTAP-deleted cell line)”.
